Measured values from paper PMC3651789 (Current biology : CB, 2013).

Columns and labels:
AEX-2/GPCR = target: T1, AEX-2/GPCR (Caenorhabditis elegans, UniProt G5ECD9); test: In vitro cellular assay for AEX-2/GPCR activation by NLP-40-derived peptides; type: cell-based, C. elegans; conditions: for activation of AEX-2/GPCR (in words): CHO/mtAEQ/Gα16 cells transfected with AEX-2/GPCR, aequorin luminescence, all concentrations tested
T1 sequence (G5ECD9 1-321): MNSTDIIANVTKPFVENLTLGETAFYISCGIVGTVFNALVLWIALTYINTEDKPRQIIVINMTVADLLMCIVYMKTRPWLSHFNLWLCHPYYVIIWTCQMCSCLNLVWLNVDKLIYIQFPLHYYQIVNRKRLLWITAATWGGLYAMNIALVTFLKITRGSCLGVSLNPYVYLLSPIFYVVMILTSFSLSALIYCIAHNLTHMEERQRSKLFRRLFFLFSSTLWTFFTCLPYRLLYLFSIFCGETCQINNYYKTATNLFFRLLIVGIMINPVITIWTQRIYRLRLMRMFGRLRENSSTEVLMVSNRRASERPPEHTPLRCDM

[1] = system: enteric muscle contractions (Exp); test: Enteric muscle contraction; type: in vivo, C. elegans; conditions: peptide injection; data not shown

Row | Substance | activation of AEX-2/GPCR (in words) (AEX-2/GPCR) | relative potency at AEX-2/GPCR (in words) (AEX-2/GPCR; CHO/mtAEQ/Gα16 cells, NLP-40 P3-1 compared to NLP-40 P3-2) | induction of enteric muscle contractions (Exp) (in words) [1]
1 | APSAPAGLEEKL [NLP-40 P1] | failed to activate AEX-2/GPCR at all concentrations tested |  | 
2 | MVAWQPM [NLP-40 P3-1] | able to activate AEX-2/GPCR | more potent ligand for AEX-2/GPCR | failed to induce robust enteric muscle contractions (Exp)
3 | VAWQPM [NLP-40 P3-2] | able to activate AEX-2/GPCR |  | 
